This assay deals with PMA-induced release of endogenous IL-6R from human peripheral blood mononuclear cells (PBMCs). Nature of the assay: Example 14: ELISA-based IL-6R release assay, PMA-induced, PBMCs from healthy donor. The class given is cell-based. The following applies: 10 μM final concentration, PMA 25 ng/ml, delta Buffer stimulated vs unstimulated = 100% inhibition; for inhibition at 10 µM: Homo sapiens, PBMC. How it is done: In the following study, ELISA-based IL-6R release assays were performed to analyze the inhibitory effects of Compounds 1, 2, 3, 4, 5, and 7 on PMA-induced release of endogenous IL-6R from primary human material obtained from healthy donor using peripheral blood mononuclear cells (PBMCs). The ELISA-based IL-6R release assay that was used in this example is described below.
In brief, on day 1, Nunc black MaxiSorp® 96-well plates (Thermo Fisher Scientific, USA) were coated overnight with […] per well of mouse anti-human IL-6R capture antibody (provided as part of the DuoSet ELISA kit) at 2 μg/ml TBS at 4° C.
40,000 PBMCs from healthy donor (SciRhom GmbH, Germany) in 80 μl of normal growth medium were seeded in each well of Greiner CELLSTAR V-bottom 96-well plates (Greiner Bio-One, Germany) and pre-incubated with 20 μl per well of standard growth medium supplemented with Batimastat (BB94, Abcam, UK) at 50 μM as positive control (for a final concentration of 10 μM in the resulting 100 μl sample volume), compounds of the invention at 50 μM (for a final concentration of 10 μM in the resulting 100 μl sample volume) and in case of Buffer stimulated and unstimulated controls with DMSO (Carl Roth, Germany) at 50 μM (for a final concentration of 10 μM in the resulting 100 μl sample volume) at 37° C., 5% CO2 for 30 minutes. Subsequently, cells (except those for unstimulated controls) were stimulated with 20 μl per well of PMA (Sigma-Aldrich, USA) at 150 ng/ml in growth medium for a final concentration of 25 ng/ml at 37° C., 5% CO2 for 22 hours.
On day 2, the capture antibody solution was removed and MaxiSorp® plates were blocked with 300 μl per well of TBS, 1% BSA at room temperature for 2-3 hours. Meanwhile, the 96-well plates were centrifuged to pellet cells. In parallel, blocking buffer was removed from the MaxiSorp® plates and plates were washed 4 times with 350 μl TBS-T (Carl Roth, Germany) per well on a 96-head plate washer (Tecan Group, Switzerland). To avoid drying-up, 30 μl TBS were added to each well of the MaxiSorp® plates immediately, followed by the transfer of 70 μl cell-free supernatant per sample. Additionally, 100 μl recombinant human IL-6R protein (provided as part of the DuoSet ELISA kit) diluted in TBS at defined concentrations were added to the plate as standard references. Plates were incubated at room temperature for 2 hours. After 4 times washing with 350 μl TBS-T (Carl Roth, Germany) per well on a 96-head plate washer (Tecan Group, Switzerland) and careful removal of all buffer traces after the fourth cycle, 100 μl biotinylated goat anti-human IL-6R detection antibody (provided as part of the DuoSet ELISA kit) at 100 ng/ml TBS were added per well and, protected from direct light, plates were incubated at room temperature for 2 hours. After 4 times washing with 350 μl TBS-T (Carl Roth, Germany) per well on a 96-head plate washer (Tecan Group, Switzerland) and careful removal of all buffer traces after the fourth cycle, 100 μl streptavidin-AP (R&D Systems, USA) diluted 1:10,000 in TBS were added to each well and, again protected from direct light, plates were incubated at room temperature for 30 minutes. Following another round of 4 times washing with 350 μl TBS-T (Carl Roth, Germany) per well on a 96-head plate washer (Tecan Group, Switzerland) and careful removal of all buffer traces after the fourth cycle, 100 μl AttoPhos substrate solution (Promega, USA) per well was added for incubation in the dark at room temperature for 1 hour. Using an infinite M1000 (Tecan Group, Switzerland) microplate reader, the fluorescence of each well was collected at an excitation wavelength of 435 nm and an emission wavelength of 555 nm.
The delta between Buffer stimulated and Buffer unstimulated was defined 100% inhibition.

The structures appear in SMILES notation.

On to `CNC(=O)[C@H](Cc1ccccc1)NC(=O)[C@H](CC(C)C)[C@H](CSc1cccs1)C(=O)NO` [Batimastat, reference compound], for which the “inhibition of PMA-induced release of IL-6R from PBMCs from healthy donor” value (22 hours) is listed as 98.5%. For the same molecule, where the note is “22 h”, the inhibition at 10 µM came to 100%.
In the case of `CCC(=O)NCCc1c(/C=C2/C(=O)NC(=O)N(c3ccc(C)cc3C)C2=O)[nH]c2ccccc12` [Compound 1], the inhibition at 10 µM (22 hours) stood at 112%.
Consider `CCOC(=O)c1ccc(Nc2nc3nonc3n3nnnc23)cc1` [Compound 2], for which, for the setting “22 h”, the inhibition at 10 µM worked out at 111%.
The same measure, in the same setting: the result for `O=C(c1c(Cl)cccc1Cl)N1CCC(Cc2ccc(F)cc2)CC1` [Compound 3] reads 0%.
On to `Cc1c(C(=O)NCc2cccs2)sc(=O)n1Cc1ccccc1` [Compound 4], for which the inhibition at 10 µM (22 h) stood at 6.2%.
As for `Cc1c(C(=O)NCc2cccs2)sc(=O)n1Cc1ccccc1F` [Compound 5], the inhibition at 10 µM (22 h) was found to be 6.5%.
Regarding `Cc1c(C(=O)NCc2ccco2)sc(=O)n1Cc1ccccc1F` [Compound 7], the inhibition at 10 µM (22 h) came out at 59.1%.

For the origin of these results see patent publication US20260242359A1, “IRHOM2 INHIBITORS AND USES THEREOF” (NEW YORK SOCIETY FOR THE RELIEF OF THE RUPTURED AND …, priority 2023, published 2026).
